Measurements: US9896438B2, “2,2,2-trifluoroethyl-thiadiazines” (Hoffmann-La Roche Inc., priority 2014, dated 2018)
Where a name gives a salt, the structure may show the parent alone.

molecular target: T1, BACE1 (Homo sapiens, UniProt P56817); experiment: Cellular Aβ-lowering assay (Abeta 40 AlphaLISA in HEK293 APP cells); assay type: cell-based; details: 18-20 hrs incubation, Aβ 40 in culture supernatants by AlphaLISA
T1 construct: endogenous in cells; host or cells: HEK293 APP cells
Method: Cellular Aβ-Lowering Assay:
The Abeta 40 AlphaLISA Assay can be used. The HEK293 APP cells were seeded in 96 well Microtiter plates in cell culture medium (Iscove's, plus 10% (v/v) fetal bovine serum, penicillin/streptomycin) to about 80% confluency and the compounds were added at a 3× concentration in ⅓ volume of culture medium (final DMSO concentration was kept at 1% v/v). After 18-20 hrs incubation at 37° C. and 5% CO2 in a humidified incubator, the culture supernatants were harvested for the determination of Aβ 40 concentrations using Perkin-Elmer Human Amyloid beta 1-40 (high specificity) Kit (Cat# AL275C).
In a Perkin-Elmer White Optiplate-384 (Cat#6007290), 2 ul culture supernatants were combined with 2 μl of a 10× AlphaLISA Anti-hAβAcceptor beads+Biotinylated Antibody Anti-Aβ 1-40 Mix (50 μg/mL/5 nM). After 1 hour room temperature incubation, 16 μl of a 1.25× preparation of Streptavidin (SA) Donor beads (25 μg/mL) were added and incubated for 30 minutes in the Dark. Light Emission at 615 nm was then recorded using En Vision-Alpha Reader. Levels of Aβ 40 in the culture supernatants were calculated as percentage of maximum signal (cells treated with 1% DMSO without inhibitor). The IC50 values were calculated using the Excel XLfit software.

T1 sequence (P56817 46-501): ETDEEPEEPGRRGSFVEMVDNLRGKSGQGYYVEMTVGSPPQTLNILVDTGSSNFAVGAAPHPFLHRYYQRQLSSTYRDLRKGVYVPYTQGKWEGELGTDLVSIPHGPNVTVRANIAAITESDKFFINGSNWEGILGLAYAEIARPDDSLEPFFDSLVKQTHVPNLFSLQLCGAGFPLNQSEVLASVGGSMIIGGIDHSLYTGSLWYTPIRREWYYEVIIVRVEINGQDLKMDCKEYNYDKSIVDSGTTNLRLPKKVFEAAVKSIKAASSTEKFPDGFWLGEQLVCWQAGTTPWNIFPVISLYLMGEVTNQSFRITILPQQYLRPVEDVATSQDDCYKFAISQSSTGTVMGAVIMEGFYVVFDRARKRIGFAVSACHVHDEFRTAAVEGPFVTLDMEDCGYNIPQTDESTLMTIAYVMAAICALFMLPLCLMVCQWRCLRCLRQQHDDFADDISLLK

SMILES	IC50 [nM]
Cc1cc(C#N)cnc1C(=O)Nc1ccc(F)c([C@]2(C)C[S@@](=O)(=NCC(F)(F)F)N(C)C(N)=N2)n1 [Example 3, N-[6-[(1R,5R)-3-amino-2,5-dimethyl-1-oxo-1-(2,2,2-trifluoroethylimino)-6H-1,2,4-thiadiazin-5-yl]-5-fluoro-2-pyridyl]-5-cyano-3-methyl-pyridine-2-carboxamide 2,2,2-trifluoroacetic Acid Salt]	0.991
CN1C(N)=N[C@](C)(c2nc(NC(=O)c3ccc(C#N)cn3)ccc2F)C[S@@]1(=O)=NCC(F)(F)F [Example 4, N-[6-[(1R,5R)-3-amino-2,5-dimethyl-1-oxo-1-(2,2,2-trifluoroethylimino)-6H-1,2,4-thiadiazin-5-yl]-5-fluoro-2-pyridyl]-5-cyano-pyridine-2-carboxamide 2,2,2-trifluoroacetic Acid Salt]	2.7
Cc1cc(F)cnc1C(=O)Nc1ccc(F)c([C@]2(C)C[S@@](=O)(=NCC(F)(F)F)N(C)C(N)=N2)n1 [Example 5, N-[6-[(1R,5R)-3-amino-2,5-dimethyl-1-oxo-1-(2,2,2-trifluoroethylimino)-6H-1,2,4-thiadiazin-5-yl]-5-fluoropyridin-2-yl]-5-fluoro-3-methylpyridine-2-carboxamide 2,2,2-trifluoroacetic Acid Salt]	13.9
CN1C(N)=N[C@](C)(c2nc(NC(=O)c3ccc(OCF)cn3)ccc2F)C[S@@]1(=O)=NCC(F)(F)F [Example 6, N-[6-[(1R,5R)-3-amino-2,5-dimethyl-1-oxo-1-(2,2,2-trifluoroethylimino)-6H-1,2,4-thiadiazin-5-yl]-5-fluoropyridin-2-yl]-5-(fluoromethoxy)pyridine-2-carboxamide 2,2,2-trifluoroacetic Acid Salt]	3.84
CC#CCOc1cnc(C(=O)Nc2ccc(F)c([C@]3(C)C[S@@](=O)(=NCC(F)(F)F)N(C)C(N)=N3)n2)cn1 [Example 7, N-[6-[(1R,5R)-3-amino-2,5-dimethyl-1-oxo-1-(2,2,2-trifluoroethylimino)-6H-1,2,4-thiadiazin-5-yl]-5-fluoropyridin-2-yl]-5-but-2-ynoxypyrazine-2-carboxamide; 2,2,2-trifluoroacetic Acid]	0.737
COc1cnc(C(=O)Nc2ccc(F)c([C@]3(C)C[S@@](=O)(=NCC(F)(F)F)N(C)C(N)=N3)n2)cn1 [Example 8, N-[6-[(1R,5R)-3-amino-2,5-dimethyl-1-oxo-1-(2,2,2-trifluoroethylimino)-6H-1,2,4-thiadiazin-5-yl]-5-fluoropyridin-2-yl]-5-methoxypyrazine-2-carboxamide 2,2,2-trifluoroacetic Acid Salt]	10.1
CN1C(N)=N[C@](C)(c2nc(NC(=O)c3ccc(OCC(F)(F)F)cn3)ccc2F)C[S@@]1(=O)=NCC(F)(F)F [Example 9, N-[6-[(1R,5R)-3-amino-2,5-dimethyl-1-oxo-1-(2,2,2-trifluoroethylimino)-6H-1,2,4-thiadiazin-5-yl]-5-fluoropyridin-2-yl]-5-(2,2,2-trifluoroethoxy)pyridine-2-carboxamide 2,2,2-trifluoroacetic Acid Salt]	50.7
CN=S1(=O)CC(C)(c2nc(NC(=O)c3ncc(C#N)cc3C)ccc2F)N=C(N)N1CC(F)(F)F (stereo not drawn) [Example 13, N-[6-[3-amino-5-methyl-1-methylimino-1-oxo-2-(2,2,2-trifluoroethyl)-6H-1,2,4-thiadiazin-5-yl]-5-fluoropyridin-2-yl]-5-cyano-3-methylpyridine-2-carboxamide; 2,2,2-trifluoroacetic Acid]	134
CN=S1(=O)C[C@@](C)(c2nc(NC(=O)c3ncc(C#N)cc3C)ccc2F)N=C(N)N1CC(F)(F)F (stereo partly drawn) [Example 15, N-[6-[(5R)-3-amino-5-methyl-1-methylimino-1-oxo-2-(2,2,2-trifluoroethyl)-6H-1,2,4-thiadiazin-5-yl]-5-fluoropyridin-2-yl]-5-cyano-3-methylpyridine-2-carboxamide; 2,2,2-trifluoroacetic acid]	0.986
CN=S1(=O)C[C@@](C)(c2nc(NC(=O)c3ncc(C#N)cc3C)ccc2F)N=C(N)N1CC(F)(F)F (stereo partly drawn) [Example 16, N-[6-[(5R)-3-amino-5-methyl-1-methylimino-1-oxo-2-(2,2,2-trifluoroethyl)-6H-1,2,4-thiadiazin-5-yl]-5-fluoropyridin-2-yl]-5-cyano-3-methylpyridine-2-carboxamide; 2,2,2-trifluoroacetic Acid]	0.593
CN=S1(=O)C[C@@](C)(c2nc(NC(=O)c3ncc(C#N)cc3Cl)ccc2F)N=C(N)N1CC(F)(F)F (stereo partly drawn) [Example 17, N-(6-((5R)-3-amino-5-methyl-1-(methylimino)-1-oxido-2-(2,2,2-trifluoroethyl)-5,6-dihydro-2H-1,2,4-thiadiazin-5-yl)-5-fluoropyridin-2-yl)-3-chloro-5-cyanopicolinamide]	0.292
CN=S1(=O)C[C@@](C)(c2nc(NC(=O)c3ncc(F)cc3C)ccc2F)N=C(N)N1CC(F)(F)F (stereo partly drawn) [Example 18, N-[6-[(5R)-3-amino-5-methyl-1-methylimino-1-oxo-2-(2,2,2-trifluoroethyl)-6H-1,2,4-thiadiazin-5-yl]-5-fluoropyridin-2-yl]-5-fluoro-3-methylpyridine-2-carboxamide; 2,2,2-trifluoroacetic acid]	74.5
